Laboratory results taken from patent US20180333418A1, “USE OF PAN FGFR INHIBITORS AND METHOD OF IDENTIFYING PATIENTS WITH CANCER ELIGIBLE FOR TREATMENT WITH A PAN FGFR INHIBITOR” (BAYER PHARMA AKTIENGESELLSCHAFT, priority 2014, published 2018).

Key:
[1] = system: KYSE-140 esophageal tumor model; assay: KYSE-140 xenograft in vivo efficacy; parameters: species or system nu/nu mice; conditions: KYSE-140 esophageal model; tumor weight reduction
Protocol: (§1) For all other tumors as listed in table 2 & 3 the experiments were carried out in an analogous way as described above.

[2] = system: FGFR mRNA-positive tumors of cancer patients; assay: Clinical trial NCT01976741, RECIST CT scan evaluation; assay type: in vivo; parameters: key to RECIST response after C2 / RECIST response after C5: Stable Disease (SD) according to RECIST; progressive disease (PD); conditions: 800 mg BID; for % tumor change after C2 / RECIST response after C2: C2 = 6 weeks; for % tumor change after C5 / RECIST response after C5: C5 = 15 weeks
[3] = system: RT112 bladder tumor model; assay: RT112 xenograft in vivo efficacy; parameters: species or system nu/nu mice; conditions: tumor weight reduction
Protocol: as §1

DMS114 lung tumor model = assay: DMS114 xenograft in vivo efficacy; parameters: species or system nu/nu mice; conditions: tumor weight reduction
Protocol: as §1

H520 lung tumor model = assay: H520 xenograft in vivo efficacy; parameters: species or system nu/nu mice; conditions: tumor weight reduction
Protocol: as §1

[4] = system: HN9897 Head & Neck squamous cell carcinoma; assay: HN9897 patient-derived xenograft study; assay type: in vivo, nu/nu mice
HepG2 liver tumor model = assay: HepG2 xenograft in vivo efficacy; parameters: species or system nu/nu mice; conditions: tumor weight reduction
Protocol: as §1

H716 colon tumor model = assay: H716 xenograft in vivo efficacy; parameters: species or system nu/nu mice; conditions: tumor weight reduction
Protocol: as §1

LU0697 lung tumor model = assay: LU0697 xenograft in vivo efficacy; parameters: species or system nu/nu mice; conditions: tumor weight reduction
Protocol: as §1

[5] = system: A2780 ovarian tumor model; assay: A2780 xenograft in vivo efficacy; parameters: species or system nu/nu mice; conditions: tumor weight reduction
Protocol: as §1

[6] = system: MFE280 endometrial tumor model; assay: MFE280 xenograft in vivo efficacy; parameters: species or system nu/nu mice; conditions: tumor weight reduction
Protocol: as §1

[7] = system: MFM223 breast tumor model; assay: MFM223 xenograft in vivo efficacy; parameters: species or system nu/nu mice; conditions: tumor weight reduction
Protocol: as §1

[8] = system: LXFA1584 lung tumor model; assay: LXFA1584 xenograft in vivo efficacy; parameters: species or system nu/nu mice; conditions: tumor weight reduction
Protocol: as §1

LU1901 lung tumor model = assay: LU1901 xenograft in vivo efficacy; parameters: species or system nu/nu mice; conditions: tumor weight reduction
Protocol: as §1

[9] = system: SNU16 gastric tumor model; assay: SNU16 xenograft in vivo efficacy; parameters: species or system nu/nu mice; conditions: tumor weight reduction
Protocol: as §1

OMP2 myeloma tumor model = assay: OMP2 xenograft in vivo efficacy; parameters: species or system nu/nu mice; conditions: tumor weight reduction
Protocol: as §1

[10] = system: HNXF908 head&neck tumor model; assay: HNXF908 xenograft in vivo efficacy; parameters: species or system nu/nu mice; conditions: tumor weight reduction
Protocol: as §1

H1581 lung tumor model = assay: H1581 xenograft in vivo efficacy; parameters: species or system nu/nu mice; conditions: tumor weight reduction
Protocol: as §1

LU299 lung tumor model = assay: LU299 xenograft in vivo efficacy; parameters: species or system nu/nu mice; conditions: tumor weight reduction
Protocol: as §1

LXFE211 lung tumor model = assay: LXFE211 xenograft in vivo efficacy; parameters: species or system nu/nu mice; conditions: tumor weight reduction
Protocol: as §1

[11] = system: ES204 esophagus squamous cell carcinoma; assay: ES204 patient-derived xenograft study; assay type: in vivo, nu/nu mice
Protocol: Female, 6-8 weeks old immunocompromised nu/nu mice (18-24 g) from Vital River (China) were used for the patient-derived ES204 esophagus squamous cell carcinoma study.
Experiment was initiated after a minimal acclimatization period of 6 days. Mice were kept in a 12 hours light/dark cycle, food and water was available ad libitum and housing temperature was 20-26° C. All the procedures related to animal handling, care, and the treatment in this study were performed according to the guidelines approved by the Institutional Animal Care and Use Committee (IACUC) of CrownBio following the guidance of the Association for Assessment and Accreditation of Laboratory Animal Care (AAALAC). […]
Tumor fragments from stock mice inoculated with selected primary human esophagus cancer tissues (ES204) were harvested and used for inoculation onto female nu/nu nude mice. […] Tumors were sampled when mice in the control group reached sacrificing criteria, and final tumor weights were measured on day 23 post treatment start.
Tumor size was measured twice weekly in two dimensions using a caliper, and the volume was expressed in mm^3 using the formula: V=0.5a×b^2 where a and b are the long and short diameters of the tumor, respectively. […]
Descriptive statistics for all groups were performed on final tumor areas and tumor weights at day of the necropsy. Statistical analysis was assessed using the SigmaStat software. […]

COCc1c(-c2cc3cc(C)cc(OC)c3s2)c2c(N)ncnn2c1CN1CCNC(=O)C1 [compound of formula (I)]
in vivo efficacy [1]: no (All models in which the tumor weight was reduced upon treatment with compounds of formula (I) by at least 50% were considered to be efficacious in vivo.)
% tumor change after C2 ([2]; Pat 100010010, sqNSCLC): 0%
RECIST response after C2 ([2]; Pat 100010010, sqNSCLC): SD
% tumor change after C5 ([2]; Pat 100010010, sqNSCLC): +8%
RECIST response after C5 ([2]; Pat 100010010, sqNSCLC): SD
% tumor change after C2 ([2]; Pat 100010018, Mesothelioma): +14%
RECIST response after C2 ([2]; Pat 100010018, Mesothelioma): SD
% tumor change after C2 ([2]; Pat 100020012, sqNSCLC): −10%
RECIST response after C2 ([2]; Pat 100020012, sqNSCLC): SD
% tumor change after C2 ([2]; Pat 560020029, sqNSCLC): +4%
RECIST response after C2 ([2]; Pat 560020029, sqNSCLC): SD
% tumor change after C5 ([2]; Pat 560020029, sqNSCLC): +5%
RECIST response after C5 ([2]; Pat 560020029, sqNSCLC): SD
% tumor change after C2 ([2]; Pat 560020064, SCLC): −2%
RECIST response after C2 ([2]; Pat 560020064, SCLC): SD
% tumor change after C2 ([2]; Pat 580010012, sqNSCLC): −10%
RECIST response after C2 ([2]; Pat 580010012, sqNSCLC): SD
% tumor change after C5 ([2]; Pat 580010012, sqNSCLC): −10%
RECIST response after C5 ([2]; Pat 580010012, sqNSCLC): SD
% tumor change after C2 ([2]; Pat 580010016, sqNSCLC): −5%
RECIST response after C2 ([2]; Pat 580010016, sqNSCLC): SD
% tumor change after C5 ([2]; Pat 580010016, sqNSCLC): −6%
RECIST response after C5 ([2]; Pat 580010016, sqNSCLC): SD
% tumor change after C2 ([2]; Pat 580010022, Bladder): −3%
RECIST response after C2 ([2]; Pat 580010022, Bladder): SD
% tumor change after C5 ([2]; Pat 580010022, Bladder): −2%
RECIST response after C5 ([2]; Pat 580010022, Bladder): SD
% tumor change after C2 ([2]; Pat 580010038, Unknown primary): +26%
RECIST response after C2 ([2]; Pat 580010038, Unknown primary): PD
in vivo efficacy [3]: yes (All models in which the tumor weight was reduced upon treatment with compounds of formula (I) by at least 50% were considered to be efficacious in vivo.)
in vivo efficacy (DMS114 lung tumor model): yes (All models in which the tumor weight was reduced upon treatment with compounds of formula (I) by at least 50% were considered to be efficacious in vivo.)
in vivo efficacy (H520 lung tumor model): no (All models in which the tumor weight was reduced upon treatment with compounds of formula (I) by at least 50% were considered to be efficacious in vivo.)
T/C at day 44 post treatment start ([4]; HN9897, 50 mg/kg 2QD po, treated mean/vehicle mean tumor volume): 0.08
in vivo efficacy ([4]; HN9897 head&neck model, tumor weight reduction): yes (All models in which the tumor weight was reduced upon treatment with compounds of formula (I) by at least 50% were considered to be efficacious in vivo.)
in vivo efficacy (HepG2 liver tumor model): no (All models in which the tumor weight was reduced upon treatment with compounds of formula (I) by at least 50% were considered to be efficacious in vivo.)
in vivo efficacy (H716 colon tumor model): yes (All models in which the tumor weight was reduced upon treatment with compounds of formula (I) by at least 50% were considered to be efficacious in vivo.)
in vivo efficacy (LU0697 lung tumor model): yes (All models in which the tumor weight was reduced upon treatment with compounds of formula (I) by at least 50% were considered to be efficacious in vivo.)
in vivo efficacy [5]: yes (All models in which the tumor weight was reduced upon treatment with compounds of formula (I) by at least 50% were considered to be efficacious in vivo.)
in vivo efficacy [6]: yes (All models in which the tumor weight was reduced upon treatment with compounds of formula (I) by at least 50% were considered to be efficacious in vivo.)
in vivo efficacy [7]: yes (All models in which the tumor weight was reduced upon treatment with compounds of formula (I) by at least 50% were considered to be efficacious in vivo.)
in vivo efficacy [8]: no (All models in which the tumor weight was reduced upon treatment with compounds of formula (I) by at least 50% were considered to be efficacious in vivo.)
in vivo efficacy (LU1901 lung tumor model): no (All models in which the tumor weight was reduced upon treatment with compounds of formula (I) by at least 50% were considered to be efficacious in vivo.)
in vivo efficacy [9]: yes (All models in which the tumor weight was reduced upon treatment with compounds of formula (I) by at least 50% were considered to be efficacious in vivo.)
in vivo efficacy (OMP2 myeloma tumor model): no (All models in which the tumor weight was reduced upon treatment with compounds of formula (I) by at least 50% were considered to be efficacious in vivo.)
in vivo efficacy [10]: yes (All models in which the tumor weight was reduced upon treatment with compounds of formula (I) by at least 50% were considered to be efficacious in vivo.)
in vivo efficacy (H1581 lung tumor model): yes (All models in which the tumor weight was reduced upon treatment with compounds of formula (I) by at least 50% were considered to be efficacious in vivo.)
in vivo efficacy (LU299 lung tumor model): yes (All models in which the tumor weight was reduced upon treatment with compounds of formula (I) by at least 50% were considered to be efficacious in vivo.)
in vivo efficacy (LXFE211 lung tumor model): yes (All models in which the tumor weight was reduced upon treatment with compounds of formula (I) by at least 50% were considered to be efficacious in vivo.)
T/C at day 23 post treatment start ([11]; ES204, 50 mg/kg 2QD po, treated mean/vehicle mean tumor volume): 0.1
in vivo efficacy ([11]; ES204 esophageal model, tumor weight reduction): yes (All models in which the tumor weight was reduced upon treatment with compounds of formula (I) by at least 50% were considered to be efficacious in vivo.)
